For 29 compounds, IC50 results are on record in US12281112B2, “Compounds for inhibiting NLRP3 and uses thereof” (Ventus Therapeutics U.S., Inc., priority 2021, dated 2025).

pIC50: −log10 of the molar value.

For assay [1], the target named is T1, NLRP3 (Homo sapiens, UniProt Q96P20). The experiment in a line: Human PBMC NLRP3 Assay. The assay is classed as cell-based. As for the experimental part:
Human PBMC NLRP3 Assay: Cryopreserved PBMCs were rapidly thawed in a 37° C. water bath for 2 min. […] A count was undertaken using a hemocytometer and adjusted to 2.5×10^5 cells/mL. V-shaped 96-well plates were seeded with 200 μL of PMBCs (5×10^4) per well and subsequently incubated overnight at 37° C. with 5% CO2. Assay Media was then prepared containing 100 ng/ml of LPS. PBMCs were then centrifuged at 1,200 RPM for 5 min, serum containing media was aspirated, and 150 μL/well of Assay Media+LPS was immediately added. Assay Media without LPS was added in the untreated control wells. Cells were then primed with LPS for 4 h at 37° C. with 5% CO2. A concentration response curve (CRC) was prepared of 1000× test compound in 100% DMSO. The CRC was then diluted 1:50 in Assay Media and then further diluted by 1:5× in Assay Media resulting in a final 4×CRC in 0.4% DMSO/Assay Media. 50 μL/well of 4× test compound CRC or vehicle (0.4% DMSO/Assay Media) was then transferred into each well and subsequently incubated for 30 min at 37° C. with 5% CO2. Cells were stimulated by adding 4 μL of 250 mM ATP, using a 250 mM stock prepared in 1 M Hepes without further dilution (for a final concentration of 5 mM), for 1 h at 37° C. with 5% CO2. Plates were then centrifuged at 1200 RPM for 5 min; and 50 μl of the media was transferred to a clean 96-well storage plate for cytokine measurements using the mesoscale platform, and stored at −80° C. until analyzed.

The target in assay [2] is T1, NLRP3. The experiment in a line: Human whole blood (hWB) NLRP3 Assay. Format: cell-based. The arrangement: Blood is collected from healthy volunteers in heparin lithium tubes; from tissue; host or cells: pooled heparinised whole blood from healthy human volunteers, LPS-primed, ATP-stimulated. As for the experimental part: Blood is collected from healthy volunteers in heparin lithium tubes. • 2. Plate 90 μL of pooled blood per well in 96-well U-bottom plates. • 3. Add 5 uL of 20×LPS (20 ug/mL, final concentration of 1 ug/mL) and mix by gentle pipetting. • 4. Incubate in TC incubator for 4.5 hours. • 5. Add 5 uL of 20× compound or vehicle per well and mix by gentle pipetting. • a. Compounds are diluted 1/50 in HBSS to prepare a 20× dilution curve in 2% DMSO • 6. Incubate for 30 minutes in TC incubator with shaking (450 rpm). • 7. […] Incubate in TC incubator for 30 minutes with shaking (450 rpm). • 9. Centrifuge plate for 10 minutes at 800×g and carefully remove ˜70 μL of plasma. Freeze plasma if required. • 10. Analyze human IL-1b with IL-1b MSD assay (K151TUK) • a.

The mark [3] stands for this setting: human PBMCs primed with LPS 4 h, compound 30 min, ATP 5 mM 1 h, cytokine measurement on mesoscale platform, potency code.
The mark [4] stands for this setting: LPS 1 ug/mL 4.5 h, compound 30 min, ATP 5 mM 30 min, IL-1b MSD assay, potency code.
[5] abbreviates: Table 5: fused bicyclic analogs vs monocyclic pyridazines.
Setting [6] is: Table 6: regioisomer comparison.

T1 sequence (Q96P20 whole entry): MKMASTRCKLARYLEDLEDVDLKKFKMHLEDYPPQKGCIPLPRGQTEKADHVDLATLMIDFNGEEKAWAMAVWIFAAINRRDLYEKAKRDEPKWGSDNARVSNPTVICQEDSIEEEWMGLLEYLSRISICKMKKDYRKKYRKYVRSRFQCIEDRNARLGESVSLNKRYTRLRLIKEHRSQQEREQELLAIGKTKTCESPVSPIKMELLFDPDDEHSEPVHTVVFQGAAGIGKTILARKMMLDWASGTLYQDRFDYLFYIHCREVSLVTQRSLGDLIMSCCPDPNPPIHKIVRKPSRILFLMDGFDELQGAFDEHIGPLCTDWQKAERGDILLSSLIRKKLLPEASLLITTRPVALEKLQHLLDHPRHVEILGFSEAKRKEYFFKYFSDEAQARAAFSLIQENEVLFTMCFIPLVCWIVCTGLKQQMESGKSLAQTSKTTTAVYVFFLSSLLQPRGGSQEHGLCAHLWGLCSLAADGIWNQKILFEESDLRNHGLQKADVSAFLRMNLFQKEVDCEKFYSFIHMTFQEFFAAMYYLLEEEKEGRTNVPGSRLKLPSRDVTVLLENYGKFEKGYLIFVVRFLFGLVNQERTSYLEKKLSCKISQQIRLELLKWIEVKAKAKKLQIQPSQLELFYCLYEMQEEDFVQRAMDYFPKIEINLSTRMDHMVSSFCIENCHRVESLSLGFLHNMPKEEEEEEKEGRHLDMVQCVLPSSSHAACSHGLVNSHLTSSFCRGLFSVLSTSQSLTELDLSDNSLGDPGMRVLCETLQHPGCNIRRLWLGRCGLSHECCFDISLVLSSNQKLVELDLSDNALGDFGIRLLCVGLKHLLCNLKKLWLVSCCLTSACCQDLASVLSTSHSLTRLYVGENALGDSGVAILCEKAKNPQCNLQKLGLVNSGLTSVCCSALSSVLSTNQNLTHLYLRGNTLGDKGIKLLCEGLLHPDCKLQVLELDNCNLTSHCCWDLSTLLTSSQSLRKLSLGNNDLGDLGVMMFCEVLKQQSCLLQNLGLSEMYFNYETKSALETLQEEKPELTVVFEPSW

The term pIC50 denotes −log10 of the IC50, conventionally taken in molar units. A higher pIC50 goes with a small IC50. For `CN1CCC[C@H]1CNc1nnc(-c2ccc(Cl)cc2O)c2ccncc12` [Compound 93, (S)-5-chloro-2-(4-(((1-methylpyrrolidin-2-yl)methyl)amino)pyrido[3,4-d]pyridazin-1-yl)phenol], in assay [1] (setting [3]), the pIC50 was above 6.52.
Compound `Clc1ccc(-c2nnc(NCC3CCCCO3)c3ccccc23)cc1` (stereo not shown) [Compound 17, 4-(4-chlorophenyl)-N-(tetrahydropyran-2-ylmethyl)phthalazin-1-amine] gave a negative-log IC50 (pIC50) in assay [2] (setting [4]) below 6.00.
Same read-out and setting: to `Clc1ccc(-c2nnc(OC[C@H]3CCCO3)c3ccncc23)cc1` [Compound 4, (R)-4-(4-chlorophenyl)-1-((tetrahydrofuran-2-yl)methoxy)pyrido[3,4-d]pyridazine] belongs 6.30 to 6.52.
Regarding `Clc1ccc(-c2nnc(NC[C@H]3CCCO3)c3cc(Cl)ccc23)cc1` (racemic) [Compound 21, 7-chloro-4-(4-chlorophenyl)-N-[[rac-(2R)-tetrahydrofuran-2-yl]methyl]phthalazin-1-amine], the results for the negative-log IC50 (pIC50) in assay [1] (setting [3]) and in assay [2] (setting [4]) were 6.30 to 6.52 and above 6.52, respectively.
For `Brc1ccc(-c2nnc(NCC3CCCO3)c3ccccc23)cc1` (stereo not shown) [drawing 168], in assay [1] (setting [5]), the negative logarithm of the IC50 (pIC50) was 6.72.
In assay [1] (setting [3]), `Oc1cc(Cl)ccc1-c1nnc(NC[C@H]2CCC(F)(F)C2)c2cnccc12` (single isomer, unassigned) [Compound 91] showed a pIC50 above 6.52.
Consider `CC1COC(CNc2nnc(-c3ccc(Cl)cc3)c3ccccc23)C1` (stereo not shown) [Compound 22, 4-(4-chlorophenyl)-N-[(4-methyltetrahydrofuran-2-yl)methyl]phthalazin-1-amine], for which, in assay [2] (setting [4]), the pIC50 is 6.00 to 6.30.
`Clc1ccc(-c2nnc(OC[C@H]3CCCO3)c3cnccc23)cc1` [Compound 3, (R)-1-(4-chlorophenyl)-4-((tetrahydrofuran-2-yl)methoxy)pyrido[3,4-d]pyridazine] had a negative logarithm of the IC50 (pIC50) in assay [2] (setting [4]) of 6.30 to 6.52.
As for `CC(C)(O)CNc1nnc(-c2ccc(Cl)cc2O)c2ccncc12` [Compound 82, 5-chloro-2-(4-((2-hydroxy-2-methylpropyl)amino)pyrido[3,4-d]pyridazin-1-yl)phenol], the negative logarithm of the IC50 (pIC50) in assay [1] (setting [3]) was above 6.52.
Regarding `Clc1ccc(-c2ccc(NCC3CCCO3)nn2)cc1` (stereo not shown) [drawing 171], the figures for the negative-log IC50 (pIC50) in assay [1] (setting [6]) and in assay [2] (setting [6]) were 4.19 and below 4.30, respectively.
Turning to `Clc1ccc(-c2nnc(NCC3COCCO3)c3ccccc23)cc1` (single isomer, unassigned) [Compound 23], the pIC50 is 6.00 to 6.30 in assay [1] (setting [3]) and below 6.00 in assay [2] (setting [4]).
For `Brc1ccc(-c2ccc(NCC3CCCO3)nn2)cc1` (stereo not shown), in assay [1] (setting [5]), the pIC50 is 5.42.
Compound `Clc1ccc(-c2nnc(NC[C@@H]3CCCO3)c3ccncc23)cc1` [Compound 2, (S)-4-(4-chlorophenyl)-N-((tetrahydrofuran-2-yl)methyl)pyrido[3,4-d]pyridazin-1-amine] had a negative-log IC50 (pIC50) in assay [2] (setting [4]) above 6.52.
Take `Clc1ccc(-c2nnc(NCC3CCCO3)c3ccncc23)cc1` (single isomer, unassigned): the pIC50 in assay [1] (setting [6]) is 5.54.
As for `Brc1ccc(-c2nnc(NCC3CCCO3)c3ccccc23)cc1` (stereo not shown) [Compound 7, 4-(4-bromophenyl)-N-(tetrahydrofuran-2-ylmethyl)phthalazin-1-amine], the figures for the pIC50 in assay [1] (setting [3]) and in assay [2] (setting [4]) were above 6.52 and below 6.00, respectively.
Take `Clc1ccc(-c2nnc(NCC3CCOCC3)c3ccccc23)cc1` [Compound 10, 4-(4-chlorophenyl)-N-(tetrahydropyran-4-ylmethyl)phthalazin-1-amine]: in assay [2] (setting [4]), the negative logarithm of the IC50 (pIC50) is below 6.00.
As for `Clc1ccc(-c2nnc(NCC3CCCOC3)c3ccccc23)cc1` (stereo not shown) [Compound 9, 4-(4-chlorophenyl)-N-(tetrahydropyran-3-ylmethyl)phthalazin-1-amine], in assay [2] (setting [4]), the pIC50 is 6.00 to 6.30.
In the case of `Clc1ccc(-c2nnc(NCC3CCCO3)c3ccncc23)cc1` (stereo not shown) [Compound 15, 4-(4-chlorophenyl)-N-(tetrahydrofuran-2-ylmethyl)pyrido[3,4-d]pyridazin-1-amine], the negative-log IC50 (pIC50) in assay [1] (setting [3]) is below 6.00; in assay [2] (setting [4]), 6.00 to 6.30.
In assay [2] (setting [4]), `COCCNc1nnc(-c2ccc(Cl)cc2)c2ccccc12` [Compound 18, 4-(4-chlorophenyl)-N-(2-methoxyethyl)phthalazin-1-amine] gave a pIC50 above 6.52.
As for `COC(C)(C)CNc1nnc(-c2ccc(Cl)cc2O)c2ccncc12` [Compound 83, 5-chloro-2-(4-((2-methoxy-2-methylpropyl)amino)pyrido[3,4-d]pyridazin-1-yl)phenol], the negative logarithm of the IC50 (pIC50) in assay [1] (setting [3]) was above 6.52.
The compound `CN(CC1CCCO1)c1nnc(-c2ccc(Cl)cc2)c2ccccc12` (stereo not shown) [Compound 19, 4-(4-chlorophenyl)-N-methyl-N-(tetrahydrofuran-2-ylmethyl)phthalazin-1-amine] had a negative logarithm of the IC50 (pIC50) in assay [2] (setting [4]) of 6.30 to 6.52.
With `Oc1cc(Cl)ccc1-c1nnc(N[C@H]2CCOC2)c2cnccc12` [Compound 89, (S)-5-chloro-2-(4-((tetrahydrofuran-3-yl)amino)pyrido[3,4-d]pyridazin-1-yl)phenol], the pIC50 in assay [1] (setting [3]) was above 6.52.
As for `Cc1cc(Cl)ccc1-c1nnc(NCC2CCCO2)c2ccccc12` (stereo not shown) [Compound 20, 4-(4-chloro-2-methyl-phenyl)-N-(tetrahydrofuran-2-ylmethyl)phthalazin-1-amine], the pIC50 in assay [1] (setting [3]) and in assay [2] (setting [4]) was 6.30 to 6.52 each time.
In the case of `Clc1ccc(-c2nnc(NCC3COCCO3)c3ccccc23)cc1` (single isomer, unassigned) [Compound 24], the pIC50 in assay [2] (setting [4]) is above 6.52.
Consider `CC1(CNc2ccc(-c3ccc(Br)cc3)nn2)CCCO1` (stereo not shown) [Compound 6, 6-(4-bromophenyl)-N-[(2-methyltetrahydrofuran-2-yl)methyl]pyridazin-3-amine], for which the negative-log IC50 (pIC50) in assay [1] (setting [3]) is below 6.00; in assay [2] (setting [4]), above 6.52.
On to `FC(F)(F)c1ccc(-c2nnc(NCC3CCCO3)c3ccccc23)cc1` (stereo not shown) [Compound 11, N-(tetrahydrofuran-2-ylmethyl)-4-[4-(trifluoromethyl)phenyl]phthalazin-1-amine], for which the pIC50 in assay [1] (setting [3]) and in assay [2] (setting [4]) was above 6.52 in each case.
In the case of `Clc1ccc(-c2ccc(NCC3CCCO3)nn2)cc1` (stereo not shown) [drawing 169], in assay [1] (setting [5]), the pIC50 was 4.19.
Compound `CC1(CNc2nnc(-c3ccc(Cl)cc3)c3ccccc23)CCCO1` (stereo not shown) [Compound 8, 4-(4-chlorophenyl)-N-[(2-methyltetrahydrofuran-2-yl)methyl]phthalazin-1-amine] showed a pIC50 in assay [2] (setting [4]) above 6.52.
Take `OCCNc1nnc(-c2ccc(Cl)cc2)c2ccccc12` [Compound 16, 2-[[4-(4-chlorophenyl)phthalazin-1-yl]amino]ethanol]: the pIC50 in assay [2] (setting [4]) is 6.00 to 6.30.
